The text below walks through data of publication PMC10444817, “New proapoptotic chemotherapeutic agents based on the quinolone-3-carboxamide scaffold acting by VEGFR-2 inhibition” (Scientific Reports, 2023).

The structures appear in SMILES notation.

Broadly, the IC50 is the concentration needed to halve the response being measured. In general, CC50 refers to the concentration at which the toxic effect on the cells reaches its halfway point.

One data set deals with Bax. Further details: method as in Li et al. 44. Conditions: ref Li et al. 44; cited from earlier work.
Data set [1] concerns HepG2 cells. Briefly: MTT cytotoxicity against HepG2 tumor cell line. Conditions: read-out: Cytotoxic activity against HepG2 cell line IC50, 48 h, average of 3 independent runs ± SE.
Data set [2] in a line: MTT cytotoxicity against THLE-2 normal liver cell line. It counts as cell-based, human. Conditions: human, THLE-2 normal liver epithelial cells; MTT, 48 h; measured in triplicates; read-out: CC50 cytotoxic activity against THLE-2 normal cell line. On the procedure:
The produced formazan was measured by means of the spectrophotometer ROBONIK P2000 at a wavelength of 570 nm. The Cytotoxic concentration values (CC50) of the assessed compounds were reported as the mean of three independent runs ± SE[69].

For data set [3], the system named is HepG2 cells. Particulars: at its IC50 for 48 h; cited from earlier work.
The next data set deals with Caspase-7. Details: method as in Li et al. 44. Particulars: ref Li et al. 44; cited from earlier work.
In data set [4] the test system is HepG2 cells. Particulars: cited from earlier work.

For the compound `CNC(=O)c1cc(Oc2ccc(NC(=O)Nc3ccc(Cl)c(C(F)(F)F)c3)cc2)ccn1` [Sorafenib], the “Effect on Bax expression in HepG2 cells” value in the data set with Bax is “no significant upregulation”. The IC50 in the data set on HepG2 cells [1] turned out to be 8.38 ± 0.5 µM. Besides, the half-maximal cytotoxic concentration (CC50) at 48 h in data set [2] is 18.5 µM. The “Effect on cell cycle kinetics of HepG2 cells” value in the data set on HepG2 cells [3] was “sequestration of cells in the PreG1 (or Sub-G1 (G0)), as well as cell growth arrest in G2/M phase”. Further, the “Effect on caspase-7 expression in HepG2 cells” value in the data set with Caspase-7 is given as “significantly upregulate the expression of caspase-7”. Moreover, in the data set on HepG2 cells [4], the “Combined apoptosis, percent cell population” value is 6.37% and the “Late apoptotic phase, percent cell population” value is on record as 4.2%.
